Laboratory results as given in patent publication US8192962B2, “Processes for detecting toxic substances” (Daikin Industries, Ltd., priority 2001, dated 2012).

Tested on: Unknown protein yeast genes
Assay: DNA chip mRNA expression in yeast, unknown protein yeast genes (Table 1)
Format: cell-based, Saccharomyces cerevisiae S288C
In short: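 Value is the scanned fluorescence intensity ratio of exposed versus chemical-free cells. Log-phase S288C yeast in YPD at 25° C. received one toxic substance for two hours, dosed to slow growth without killing; Cy3/Cy5-labeled cDNA from oligo-dT-purified mRNA was hybridized to a whole-genome chip at 65° C.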

CN(C)C(=S)SSC(=S)N(C)C [(10), Tetramethylthiuram disulfide]
The level of expressed mRNA in the presence of chemical substance/The level of expressed mRNA in the absence of chemical substance (yeast gene YAL053W, incubated two hours with chemical substance): 0.9 | The level of expressed mRNA in the presence of chemical substance/The level of expressed mRNA in the absence of chemical substance (yeast gene YBL048W): 4.4 | The level of expressed mRNA in the presence of chemical substance/The level of expressed mRNA in the absence of chemical substance (yeast gene YBL107C): 3.1 | The level of expressed mRNA in the presence of chemical substance/The level of expressed mRNA in the absence of chemical substance (yeast gene YBR100W): 3.0 | The level of expressed mRNA in the presence of chemical substance/The level of expressed mRNA in the absence of chemical substance (yeast gene YDL072C, incubated two hours with chemical substance): 1.5 | The level of expressed mRNA in the presence of chemical substance/The level of expressed mRNA in the absence of chemical substance (yeast gene YDL204W, incubated two hours with chemical substance): 2.0 | The level of expressed mRNA in the presence of chemical substance/The level of expressed mRNA in the absence of chemical substance (yeast gene YDL222C, incubated two hours with chemical substance): 1.0 | The level of expressed mRNA in the presence of chemical substance/The level of expressed mRNA in the absence of chemical substance (yeast gene YDR330W, incubated two hours with chemical substance): 2.6 | The level of expressed mRNA in the presence of chemical substance/The level of expressed mRNA in the absence of chemical substance (yeast gene YDR391C, incubated two hours with chemical substance): 2.7 | The level of expressed mRNA in the presence of chemical substance/The level of expressed mRNA in the absence of chemical substance (yeast gene YDR411C, incubated two hours with chemical substance): 1.0 | The level of expressed mRNA in the presence of chemical substance/The level of expressed mRNA in the absence of chemical substance (yeast gene YDR511W, incubated two hours with chemical substance): 2.2 | The level of expressed mRNA in the presence of chemical substance/The level of expressed mRNA in the absence of chemical substance (yeast gene YDR545W, incubated two hours with chemical substance): 0.7 | The level of expressed mRNA in the presence of chemical substance/The level of expressed mRNA in the absence of chemical substance (yeast gene YEL001C, incubated two hours with chemical substance): 1.2 | The level of expressed mRNA in the presence of chemical substance/The level of expressed mRNA in the absence of chemical substance (yeast gene YER004W, incubated two hours with chemical substance): 2.9 | The level of expressed mRNA in the presence of chemical substance/The level of expressed mRNA in the absence of chemical substance (yeast gene YER035W, incubated two hours with chemical substance): 1.4 | The level of expressed mRNA in the presence of chemical substance/The level of expressed mRNA in the absence of chemical substance (yeast gene YER079W, incubated two hours with chemical substance): 3.4 | The level of expressed mRNA in the presence of chemical substance/The level of expressed mRNA in the absence of chemical substance (yeast gene YER106W, incubated two hours with chemical substance): 1.8 | The level of expressed mRNA in the presence of chemical substance/The level of expressed mRNA in the absence of chemical substance (yeast gene YER158C, incubated two hours with chemical substance): 1.6 | The level of expressed mRNA in the presence of chemical substance/The level of expressed mRNA in the absence of chemical substance (yeast gene YER163C, incubated two hours with chemical substance): 3.4 | The level of expressed mRNA in the presence of chemical substance/The level of expressed mRNA in the absence of chemical substance (yeast gene YER175C, incubated two hours with chemical substance): 11.5 | The level of expressed mRNA in the presence of chemical substance/The level of expressed mRNA in the absence of chemical substance (yeast gene YFL006W, incubated two hours with chemical substance): 1.7 | The level of expressed mRNA in the presence of chemical substance/The level of expressed mRNA in the absence of chemical substance (yeast gene YFL010C, incubated two hours with chemical substance): 1.4 | The level of expressed mRNA in the presence of chemical substance/The level of expressed mRNA in the absence of chemical substance (yeast gene YFL024C): 0.5 | The level of expressed mRNA in the presence of chemical substance/The level of expressed mRNA in the absence of chemical substance (yeast gene YFL032W, incubated two hours with chemical substance): 0.6 | The level of expressed mRNA in the presence of chemical substance/The level of expressed mRNA in the absence of chemical substance (yeast gene YFR020W): 3.5 | The level of expressed mRNA in the presence of chemical substance/The level of expressed mRNA in the absence of chemical substance (yeast gene YGL037C, incubated two hours with chemical substance): 1.6 | The level of expressed mRNA in the presence of chemical substance/The level of expressed mRNA in the absence of chemical substance (yeast gene YGL047W, incubated two hours with chemical substance): 5.7 | The level of expressed mRNA in the presence of chemical substance/The level of expressed mRNA in the absence of chemical substance (yeast gene YGL053W, incubated two hours with chemical substance): 2.4 | The level of expressed mRNA in the presence of chemical substance/The level of expressed mRNA in the absence of chemical substance (yeast gene YGL121C): 15.0 | The level of expressed mRNA in the presence of chemical substance/The level of expressed mRNA in the absence of chemical substance (yeast gene YGL199C, incubated two hours with chemical substance): 0.1 | The level of expressed mRNA in the presence of chemical substance/The level of expressed mRNA in the absence of chemical substance (yeast gene YGR101W, incubated two hours with chemical substance): 1.4 | The level of expressed mRNA in the presence of chemical substance/The level of expressed mRNA in the absence of chemical substance (yeast gene YGR110W): 4.8 | The level of expressed mRNA in the presence of chemical substance/The level of expressed mRNA in the absence of chemical substance (yeast gene YGR130C, incubated two hours with chemical substance): 1.5 | The level of expressed mRNA in the presence of chemical substance/The level of expressed mRNA in the absence of chemical substance (yeast gene YGR154C, incubated two hours with chemical substance): 9.1 | The level of expressed mRNA in the presence of chemical substance/The level of expressed mRNA in the absence of chemical substance (yeast gene YGR221C, incubated two hours with chemical substance): 0.7 | The level of expressed mRNA in the presence of chemical substance/The level of expressed mRNA in the absence of chemical substance (yeast gene YGR243W): 3.0 | The level of expressed mRNA in the presence of chemical substance/The level of expressed mRNA in the absence of chemical substance (yeast gene YHR029C): 8.6 | The level of expressed mRNA in the presence of chemical substance/The level of expressed mRNA in the absence of chemical substance (yeast gene YHR105W): 3.4 | The level of expressed mRNA in the presence of chemical substance/The level of expressed mRNA in the absence of chemical substance (yeast gene YHR138C, incubated two hours with chemical substance): 4.6 | The level of expressed mRNA in the presence of chemical substance/The level of expressed mRNA in the absence of chemical substance (yeast gene YHR199C, incubated two hours with chemical substance): 6.0 | The level of expressed mRNA in the presence of chemical substance/The level of expressed mRNA in the absence of chemical substance (yeast gene YHR209W): 6.4 | The level of expressed mRNA in the presence of chemical substance/The level of expressed mRNA in the absence of chemical substance (yeast gene YIL023C, incubated two hours with chemical substance): 1.6 | The level of expressed mRNA in the presence of chemical substance/The level of expressed mRNA in the absence of chemical substance (yeast gene YIL024C, incubated two hours with chemical substance): 1.8 | The level of expressed mRNA in the presence of chemical substance/The level of expressed mRNA in the absence of chemical substance (yeast gene YIL041W, incubated two hours with chemical substance): 1.4 | The level of expressed mRNA in the presence of chemical substance/The level of expressed mRNA in the absence of chemical substance (yeast gene YIL087C, incubated two hours with chemical substance): 1.8 | The level of expressed mRNA in the presence of chemical substance/The level of expressed mRNA in the absence of chemical substance (yeast gene YJL057C, incubated two hours with chemical substance): 6.1 | The level of expressed mRNA in the presence of chemical substance/The level of expressed mRNA in the absence of chemical substance (yeast gene YJL066C, incubated two hours with chemical substance): 2.1 | The level of expressed mRNA in the presence of chemical substance/The level of expressed mRNA in the absence of chemical substance (yeast gene YJL082W, incubated two hours with chemical substance): 2.9 | The level of expressed mRNA in the presence of chemical substance/The level of expressed mRNA in the absence of chemical substance (yeast gene YJL151C, incubated two hours with chemical substance): 1.6 | The level of expressed mRNA in the presence of chemical substance/The level of expressed mRNA in the absence of chemical substance (yeast gene YJL152W, incubated two hours with chemical substance): 1.0 | The level of expressed mRNA in the presence of chemical substance/The level of expressed mRNA in the absence of chemical substance (yeast gene YJL161W, incubated two hours with chemical substance): 2.1 | The level of expressed mRNA in the presence of chemical substance/The level of expressed mRNA in the absence of chemical substance (yeast gene YJL171C, incubated two hours with chemical substance): 1.7 | The level of expressed mRNA in the presence of chemical substance/The level of expressed mRNA in the absence of chemical substance (yeast gene YJR008W, incubated two hours with chemical substance): 1.9 | The level of expressed mRNA in the presence of chemical substance/The level of expressed mRNA in the absence of chemical substance (yeast gene YJR054W, incubated two hours with chemical substance): 0.6 | The level of expressed mRNA in the presence of chemical substance/The level of expressed mRNA in the absence of chemical substance (yeast gene YKL071W): 109.2
